Results taken from patent publication US11137396B2, “In vitro assays for assessing cell aging” (METAFORA BIOSYSTEMS, priority 2014, dated 2021).

Test system: hMSCs derived from ES cells
Experiment: XPR1/Glut1 ratio in senescence accelerated-model induced by mitomycin C (RBD labelling, flow cytometry)
Assay type: cell-based, human
Conditions: 1 or 10 μg/mL MMC for 3 hours, then 4 additional days; ES-derived hMSC; FIG. 5
Description: 80% confluent hMSCs derived from ES cells were treated for 3 hours with 1 or 10 μg/mL of mitomycin C (MMC, Sigma) or none (control cells). After the pulse of MMC, the cells were washed twice with PBS, detached with TrypLE Express for 5 minutes à 37° C. and re-plated in flasks for 4 additional days at the end of which the cells were detached for RBD labelling and the doubling time (h) was determined by counting.
3·10^4 cells were used for each binding and were transferred into a 96-well V-shape microplate. RBDs were premixed pairwise (Glut1.RBD.mouseFc and Xeno.RBD.rabbitFc) in culture medium containing 0.1% sodium azide and 1 mM EDTA. RBDs were added to hMSCs and incubated at 37° C. for 20 minutes. Cells were washed once with buffer B (PBS/2% FCS/0.1% sodium azide/1 mM EDTA) and then incubated with Alexa Fluor 647 goat anti-rabbit IgG (Life Technologies, 1/1 000) and R-PE goat anti-mouse IgG1 (Life technologies, 1/100) in buffer B. After 30 minutes of incubation at 4° C. in the dark, the cells were washed twice and resuspended in buffer B before flow cytometry analysis. Fluorescent signals were acquired on a FACSVerse flow cytometer (BD Biosciences) with 405, 488 and 640 nm excitation, and data analysis was performed using Flowjo software (Tree Star Inc.).
“Fluorescence minus One” controls were used to establish background level in RBD channels (R-PE and AF647). […]

## CO[C@@]12[C@H](COC(N)=O)C3=C(C(=O)C(C)=C(N)C3=O)N1C[C@@H]1N[C@@H]12 [Mitomycin C, mitomycin C]
  XPR1/Glut1 ratio normalized to the control condition: increases the XPR1/Glut1 ratio in a dose-dependant manner
